The values that follow come from ChEMBL document CHEMBL3352702, “Design, synthesis and in vitro antikinetoplastid evaluation of N-acylated putrescine, spermidine and spermine derivatives” (Bioorg Med Chem Lett, 2015).

One may read the IC50 as the concentration that inhibits the measured activity by half.

Structures are written as SMILES.

For one data set, the system named is Trypanosoma brucei. Description: Antikinetoplastid activity against Trypanosoma brucei gambiense assessed as parasite growth inhibition. It counts as functional, organism-based.
Another data set has as its system Leishmania donovani. Description: Antikinetoplastid activity against Leishmania donovani LV9 […] amastigotes in mouse RAW264.7 cells assessed as viability measured 24 hrs by SYBR green assay. Type of data set: functional, organism-based. Conditions: LV9, RAW264.7, 24 h.
For the next data set, the system named is RAW264.7. Put plainly: Cytotoxicity against mouse RAW264.7 cells assessed as reduction in cell viability up to 100 uM. Type of data set: cell-based.
Data set [1] in a line: Selectivity index, ratio of cytotoxicity against mouse RAW264.7 cells to IC50 for Trypanosoma brucei gambiense. To be noted: read-out: Selectivity Index. It counts as toxicity, cell-based.

Turning to `CC(=O)NCCC(=O)NCCSCC(=O)NCCCNCCCCNCCCN.Cl`, the IC50 with Trypanosoma brucei was 2.98 µM; in the data set with Leishmania donovani, over 100 µM. Besides, the Activity entry in the data set on RAW264.7 is “Non-toxic”.

Take `COCC(=O)NCCCCN.Cl`: the IC50 in the data set with Trypanosoma brucei and in the data set with Leishmania donovani was over 100 µM each time. For the same molecule, in the data set on RAW264.7, the Activity entry is recorded as “Non-toxic”.

As for `CC(C)(C)OC(=O)NCCCCN`, the IC50 in the data set with Trypanosoma brucei and in the data set with Leishmania donovani was over 100 µM in each case. The Activity result in the data set with RAW264.7 was “Non-toxic”.

`N=C(N)c1ccc(OCCCCCOc2ccc(C(=N)N)cc2)cc1` [PENTAMIDINE]: the concentration for half-maximal inhibition (IC50) in the data set with Trypanosoma brucei was found to be 0.011 µM; in the data set on Leishmania donovani it was 4.21 µM.

Regarding `CC(C)(C)OC(=O)NCCCCN(CCC#N)C(=O)OC(C)(C)C`, the IC50 in the data set on Trypanosoma brucei and in the data set on Leishmania donovani was over 100 µM each time. Also, the Activity entry with RAW264.7 is given as “Non-toxic”.

Take `COCC(=O)NCCCN(CCCCNC(=O)OC(C)(C)C)C(=O)OC(C)(C)C`: the IC50 in the data set with Trypanosoma brucei and with Leishmania donovani was over 100 µM each time. For the same molecule, in the data set on RAW264.7, the Activity entry is recorded as “Non-toxic”.

With `COCC(=O)NCCCCNC(=O)OC(C)(C)C`, the IC50 in the data set on Trypanosoma brucei and in the data set on Leishmania donovani was over 100 µM throughout. For the same molecule, the Activity result with RAW264.7 was “Non-toxic”.

As to `COCC(=O)N(CCCCNC(=O)OC(C)(C)C)CCCNC(=O)OC(C)(C)C`, the IC50 in the data set on Trypanosoma brucei and in the data set with Leishmania donovani was over 100 µM throughout. Further, the Activity result with RAW264.7 was “Non-toxic”.

Regarding `CC(C)(C)OC(=O)NCCCCN(CCCN)C(=O)OC(C)(C)C`, the IC50 with Trypanosoma brucei is 11.6 µM; in the data set on Leishmania donovani, over 100 µM. Further, the Activity result with RAW264.7 is on record as “Non-toxic”.

As to `COCC(=O)NCCCCNCCCN.Cl`, the IC50 amounted to 15.6 µM in the data set with Trypanosoma brucei and 50 µM with Leishmania donovani. The Activity entry in the data set with RAW264.7 was “Non-toxic”.

Take `CC(=O)NCCSCC(=O)NCCCCNCCCN.Cl`: the half-maximal inhibitory concentration (IC50) with Trypanosoma brucei is 5.75 µM; in the data set with Leishmania donovani it was over 100 µM. The Activity result in the data set on RAW264.7 is reported as “Non-toxic”.

As for `CC(=O)NCCSCC(=O)NCCCNCCCCNCCCN.Cl`, the IC50 in the data set with Trypanosoma brucei is 1.92 µM; in the data set on Leishmania donovani, over 100 µM. Further, in the data set on RAW264.7, the Activity result is “Non-toxic”. Further, the selectivity ratio in data set [1] is over 52.

In the case of `CCCCCCCCCCCCCCCCOP(=O)([O-])OCC[N+](C)(C)C` [MILTEFOSINE], in the data set on Leishmania donovani, the concentration for half-maximal inhibition (IC50) was 10.2 µM.

In the case of `COCC(=O)NCCCCN(CCCNC(=O)OC(C)(C)C)C(=O)OC(C)(C)C`, the IC50 in the data set on Trypanosoma brucei and in the data set on Leishmania donovani was over 100 µM throughout. Further, the Activity entry with RAW264.7 is recorded as “Non-toxic”.

In the case of `CC(=O)NCCC(=O)NCCSCC(=O)NCCCNCCCCN.Cl`, the IC50 is 11.5 µM in the data set with Trypanosoma brucei and over 100 µM in the data set on Leishmania donovani. The Activity result in the data set with RAW264.7 was “Non-toxic”.

Consider `COCC(=O)N(CCCN)CCCCN.Cl`, for which the 50% inhibitory concentration (IC50) with Trypanosoma brucei and with Leishmania donovani was over 100 µM each time. Further, the Activity result in the data set with RAW264.7 was “Non-toxic”.

In the case of `CC(C)(C)OC(=O)NCCCCNCCCNC(=O)OC(C)(C)C`, the IC50 in the data set on Trypanosoma brucei and in the data set with Leishmania donovani was over 100 µM throughout. Besides, in the data set on RAW264.7, the Activity result is on record as “Non-toxic”.

`COCC(=O)NCCCNCCCCN.Cl`: the half-inhibitory concentration (IC50) with Trypanosoma brucei is over 100 µM; in the data set on Leishmania donovani, 5.47 µM. For the same molecule, the Activity entry in the data set with RAW264.7 is given as “Non-toxic”.

Consider `CC(=O)NCCSCC(=O)NCCCNCCCCN.Cl`, for which the figures for the IC50 in the data set on Trypanosoma brucei and in the data set with Leishmania donovani were 14.8 µM and 70.8 µM, respectively. Further, the Activity entry in the data set on RAW264.7 was “Non-toxic”.
